Here are results for 1 compound from US7976878B2, “Use of winter savory (Satureja montana) or the extracts thereof for the preparation of medicaments for the treatment of the premature ejaculation” (Indena S.p.A., priority 2004, dated 2011).

Entries after “also recorded” stand apart in the source; their conditions may differ.

In the assay the test system is Sprague-Dawley rats. The assay is described as follows: Copulatory activity (sexual behaviour) test in male rats with very short ejaculation latency. It is filed as in vivo, rat. The conditions noted are these: for ejaculation latency (EL) / intromission frequency (IF) / intromission latency (IL) / mount frequency (MF) / mount latency (ML) / postejaculatory interval (PEI): 45 min before test, mean ± SEM (n = 8-10). The protocol: The resulting extract was solubilised in Tween 80 (10%) and water and administered to test animals through a gastric probe, in a volume of 5 ml/kg, at different doses, 45 minutes before the in vivo test. Sprague-Dawley rats were used, both males (weighing approx. 220 g) and females (weighing approx. 160 g), from Harlan Italy (Udine, Italy). The animals were housed under controlled temperature and humidity conditions (22±1° C., 60% humidity), with 12 hours inverted light-darkness cycle, with lights on at 7 a.m. Females were ovariectomized and subcutaneously injected with estradiol valerate (500 μg) and progesterone (2 mg) 48 hours after, to induce estrus. Male rats with very short ejaculation latency time were chosen through starting screening consisting of 7 pre-tests [A. Ågmo, Male rat sexual behavior, Brain Research Protocols 1: 203-209, 1997]. The resulting extract according to Example II or rosmarinic acid were solubilised in Tween 80 (10%) and water and administered to animals, by gastric probe, in a volume of 5 ml/kg, at different doses, 45 minutes before carrying out all the in vivo tests. Sexual behaviour was evaluated under quite conditions, with feeble red light, according to the standard procedure [A. Ågmo, Male rat sexual behavior, Brain Research Protocols 1: 203-209, 1997]. The main parameters recorded during the test were: 1) mount latency (ML); 2) intromission latency (IL); 3) ejaculation latency (EL); 4) postejaculatory interval (PEI); 5) mount frequency (MF); 6) intromission frequency (IF).

[1] abbreviates: rosmarinic acid 10 mg/kg by gastric probe.
Where [2] appears, read: rosmarinic acid 20 mg/kg by gastric probe.

As to `O=C(/C=C/c1ccc(O)c(O)c1)O[C@H](Cc1ccc(O)c(O)c1)C(=O)O` [Rosmarinic acid, rosmarinic acid], under setting [1], the “ejaculation latency (EL)” value was 1282.2 ± 90.4 s, the “intromission frequency (IF)” value is 19.8 ± 1.2 n°, the “intromission latency (IL)” value stood at 393.9 ± 89.8 s and the “mount frequency (MF)” value is reported as 1.6 ± 0.3 n°. In addition, under setting [1], the “mount latency (ML)” value was 382.4 ± 93.6 s and the “postejaculatory interval (PEI)” value came out at 548.5 ± 45.5 s. Also, under setting [2], the “ejaculation latency (EL)” value is 1493.1 ± 81.9 s, the “intromission frequency (IF)” value was 27.3 ± 0.7 n°, the “intromission latency (IL)” value worked out at 408.4 ± 48.6 s and the “mount frequency (MF)” value is on record as 1.1 ± 0.1 n°. Also, under setting [2], the “mount latency (ML)” value is 425.8 ± 83.2 s and the “postejaculatory interval (PEI)” value turned out to be 602.2 ± 102.4 s. The “activity on copulatory activity / ejaculation latency compared with the extract (in words)” value (rosmarinic acid, doses of 10 and 20 mg/kg, same experimental conditions) is “equivalent activity to that of the extract; also recorded: same results”.
